From US8871747B2, “Urea and thiourea derivatives” (Topotarget A/S, priority 2008, dated 2014) come the findings set out here.

Counter-ions that a name gives are not always drawn.

The test has as its system A2780 cells. Description: In vitro cell proliferation assay (WST-1 assay). It counts as cell-based. The following applies: Homo sapiens, total incubation time 72 h, WST-1 viable cell readout. As for the experimental part: A2780 cells were seeded in 96-well plates at 3×10^3 cells/well in 100 μL of culture medium, 8 wells were left empty for media only controls.
After 24 h the compound titrations were performed, in a separate dilution plate, by serially diluting the compounds of general formula (I) in culture medium. A 100 μL of each dilution was added to the plated cells, this was done in triplicate, and controls (e.g. DMSO and blanks) were included. The plates were incubated for 24 h at 37° C. in a CO2 incubator. The compound titrations were repeated in a separate dilution plate after 24 h. The media plus compound from the assay plates were then aspirated. A 100 μL of media was then added to all wells, followed by 100 μL of each compound dilution. The plates were incubated for a further 48 h at 37° C. in a CO2 incubator (total incubation time 72 h). The number of viable cells was then assessed using Cell Proliferation Reagent WST-1. 10 μL of WST-1 reagent added to each well and incubated for one to four hours at 37° C. in CO2 incubator. The absorbance was measured (450 nm/690 nm).
The activity of compounds of general formula (I) in reducing the number of viable cells was calculated as: % activity=[(S^C−B)/(S^O−B)]×100
S^C denotes signal measured in the presence of test compound, S^O denotes signal detected in the absence of compound, and B denotes background signal, measured in blank wells containing medium only. Analyse data using GraphPad Prism.
(Tetrazolium assays rely on reduction of a dye to a coloured formazan, in cell work by metabolically active cells.)
The IC50 is the concentration that inhibits the measured activity by half. Turning to `O=C(NCCCCCCS(=O)(=O)NOCC1CCCCC1)Nc1ccncc1` [Compound 1001, N-(cyclohexylmethoxy)-6-(3-pyridin-4-ylureido)hexane-1-sulfonamide], 13.5 nM corresponded to half-maximal inhibition (IC50).

`O=C(NCCCCCCC(=O)N(OCCN1CCOCC1)C1CCCCC1)Nc1ccncc1` [Compound 1002, N-Cyclohexyl-N-(2-morpholinoethoxy)-7-(3-pyridin-4-ylureido)heptanamide]: the IC50 worked out at 1.49 nM.

For the compound `O=S(=O)(CCCCCCNC(=S)Nc1ccncc1)N(OCCN1CCOCC1)C1CCCCC1` [Compound 1005, N-Cyclohexyl-N-(2-morpholinethoxy)-6-(3-pyridin-4-ylthioureido)hexane-1-sulfonamide oxalate], the IC50 was found to be 0.34 nM.

Compound `O=C(NCCCCCCS(=O)(=O)N(OCCN1CCOCC1)C1CCCCC1)Nc1ccncc1` [Compound 1008, N-Cyclohexyl-N-(2-morpholinethoxy)-6-(3-pyridin-4-ylureido)hexane-1-sulfonamide oxalate] gave an IC50 of 0.23 nM.

Compound `O=C(NCCCCCCC(=O)N(OCCN1CCOCC1)C1CCCCC1)NCc1cccnc1` [Compound 1009, N-cyclohexyl-N-(2-morpholinoethoxy)-7-(3-(pyridin-3-ylmethyl)ureido)heptanamide] yielded an IC50 of 0.33 nM.

Regarding `COCCOCCOCCN(OCC1CCCCC1)S(=O)(=O)CCCCCCNC(=O)NCc1cccnc1` [Compound 1013, N-(cyclohexylmethoxy)-N-(2-(2-(2-methoxyethoxy)ethoxy)ethyl)-6-(3-(pyridin-3-ylmethyl)ureido)hexane-1-sulfonamide], the IC50 is 0.11 nM.

`O=C(CCCCCCNC(=S)NCc1cccnc1)N(OCCN1CCOCC1)C1CCCCC1` [Compound 1015, N-cyclohexyl-N-(2-morpholinoethoxy)-7-(3-(pyridin-3-ylmethyl)thioureido)heptanamide] registered an IC50 of 0.89 nM.

The compound `O=C(NCCCCCCS(=O)(=O)N1CCCCO1)NCc1cccnc1` [Compound 1018, hydrochloride] yielded an IC50 of 14 nM.

For the compound `O=C(NCCCCCCC(=O)N(OCCN1CCOCC1)C1CCCCC1)NCCc1cccnc1` [Compound 1020], the IC50 worked out at 1.34 nM.

Consider `CC(C)N(OCCN1CCOCC1)S(=O)(=O)CCCCCCNC(=O)NCc1cccnc1` [Compound 1022, N-Isopropyl-N-(2-morpholinoethoxy)-6-(3-(pyridin-3-ylmethyl)ureido)hexane-1-sulfonamide], for which the IC50 amounted to 2.23 nM.

Turning to `O=C(NCCCCCCS(=O)(=O)N(CCCN1CCOCC1)C1CCCCC1)Nc1ccncc1` [Compound 1026, N-Cyclohexyl-N-(3-morpholinopropyl)-6-(3-pyridin-4-ylureido)hexane-1-sulfonamide], the IC50 amounted to 0.23 nM.

As for `O=C(NCCCCCCS(=O)(=O)N(CCN1CCOCC1)OCC1CCCCC1)NCc1cccnc1` [Compound 1031, N-(cyclohexylmethoxy)-N-(2-morpholinoethyl)-6-(3-(pyridin-3-ylmethyl)ureido)hexane-1-sulfonamide], the IC50 turned out to be 0.13 nM.

Take `O=C(NCCCCCCS(=O)(=O)N(CCN1CCOCC1)OCC1CCCCC1)NCCc1cccnc1` [Compound 1032, N-(cyclohexylmethoxy)-N-(2-morpholinoethyl)-6-(3-(2-(pyridin-3-yl)ethyl)ureido)hexane-1-sulfonamide]: the IC50 came to 14.1 nM.

On to `O=C(NCCCCCS(=O)(=O)N(OCCN1CCOCC1)C1CCCCC1)NCc1cccnc1` [Compound 1042], for which the IC50 worked out at 6.64 nM.

In turn, `O=C(NCCCCCCCS(=O)(=O)N(OCCN1CCOCC1)C1CCCCC1)NCc1cccnc1` [Compound 1043] had an IC50 of 0.37 nM.

`CC(C)N(CCCN1CCOCC1)S(=O)(=O)CCCCCCNC(=O)Nc1ccncc1` [Compound 1049, N-Isopropyl-N-(3-morpholinopropyl)-6-(3-pyridin-4-ylureido)hexane-1-sulfonamide] displayed an IC50 of 0.6 nM.

For the compound `O=C(NCCCCCCS(=O)(=O)N(OCCN1CCOCC1)C1CCCC1)NCc1cccnc1` [Compound 1056, N-Cyclopentyl-N-(2-morpholinoethoxy)-6-(3-(pyridin-3-ylmethyl)ureido)hexane-1-sulfonamide], the IC50 is 0.58 nM.

Consider `O=C(NCCCCCCS(=O)(=O)N(OCCN1CCOCC1)C1CCCCCC1)NCc1cccnc1` [Compound 1058, N-Cycloheptyl-N-(2-morpholinoethoxy)-6-(3-(pyridin-3-ylmethyl)ureido)hexane-1-sulfonamide], for which the IC50 amounted to 0.63 nM.

`O=S(=O)(CCCCCCNC(=S)Nc1ccncc1)N(CCCN1CCOCC1)C1CCCC1` [Compound 1064, N-Cyclopentyl-N-(3-morpholinopropyl)-6-(3-pyridin-4-ylthioureido)hexane-1-sulfonamide]: the IC50 was found to be 0.55 nM.

On to `O=C(NCCCCCCC(=O)N(OCCN1CCOCC1)C1CCCCC1)Nc1cccnc1` [Compound 1065, N-Cyclohexyl-N-(2-morpholinoethoxy)-7-(3-pyridin-3-ylureido)heptanamide], for which the IC50 was found to be 0.22 nM.

In the case of `O=C(NCCCCCCS(=O)(=O)N(CCCN1CCOCC1)C1CCCC1)Nc1ccncc1` [Compound 1066, N-Cyclopentyl-N-(3-morpholinopropyl)-6-(3-pyridin-4-ylureido)hexane-1-sulfonamide], half-maximal inhibition (IC50) was put at 0.27 nM.

The compound `CCOP(=O)(CCCCCCNC(=O)NCc1cccnc1)NC1CCCCC1` (centres unmarked) [Compound 1067, Ethyl N-cyclohexyl-P-(6-(3-pyridin-3-ylmethyl)ureido)phosphonamidate] displayed a half-maximal inhibitory concentration (IC50) of 0.79 nM.

`O=C(NCCCCCS(=O)(=O)N(CCCN1CCOCC1)C1CCCC1)NCc1cccnc1` [Compound 1069, N-cyclopentyl-N-(3-morpholinopropyl)-5-(3-(pyridin-3-ylmethyl)ureido)pentane-1-sulfonamide] yielded an IC50 of 3.04 nM.

With `CCOP(=O)(CCCCCCNC(=O)NCc1cccnc1)N1CCCCO1` (centres unmarked) [Compound 1072], inhibition was half-maximal at 2.4 nM (IC50).

As for `O=C(NCCCCCCS(=O)(=O)N(OCCN1CCOCC1)C1CCCCC1)NCc1cccnc1` [Compound 1075, N-Cyclohexyl-N-(2-morpholinoethoxy)-6-(3-(pyridin-3-ylmethyl)ureido)hexane-1-sulfonamide oxalate], half-maximal inhibition (IC50) required 1.64 nM.

`O=C(NCCCCCCS(=O)(=O)Nc1ccccc1)NCc1cccnc1` [Compound 1076, N-Phenyl-6-(3-(pyridin-3-ylmethyl)ureido)hexane-1-sulfonamide] yielded an IC50 of 5.4 nM.

`O=C(NCCCCCCS(=O)(=O)N(CCN1CCOCC1)OCc1ccccc1)NCc1cccnc1` [Compound 1078, N-(Benzyloxy)-N-(2-morpholinoethyl)-6-(3-(pyridin-3-ylmethyl)ureido)hexane-1-sulfonamide]: inhibition was half-maximal at 0.46 nM (IC50).

`O=S(=O)(CCCCCCNC(=S)Nc1ccncc1)N(CCCN1CCOCC1)C1CCCCC1` [Compound 1081, N-Cyclohexyl-N-(3-morpholinopropyl)-6-(3-(pyridin-4-ylthioureido)hexane-1-sulfonamide oxalate] had an IC50 of 0.83 nM.

Regarding `O=S(=O)(CCCCCCNC(=S)Nc1ccncc1)N(OCCN1CCOCC1)C1CCCC1` [Compound 1082], 0.053 nM corresponded to half-maximal inhibition (IC50).

The compound `O=S(=O)(CCCCCNC(=S)Nc1ccncc1)N(OCCN1CCOCC1)C1CCCC1` [Compound 1083, N-Cyclopentyl-N-(2-morpholinoethoxy)-5-(3-(pyridin-4-ylthioureido)pentane-1-sulfonamide oxalate] registered an IC50 of 3.92 nM.

`O=S(=O)(CCCCCCNC(=S)Nc1ccncc1)N(CCF)OCC1CCCCC1` [Compound 1087, N-(cyclohexylmethoxy)-N-(2-fluoroethyl)-6-(3-pyridin-4-ylthioureido)hexane-1-sulfonamide] showed an IC50 of 1.36 nM.

Consider `O=C(NCCCCCCS(=O)(=O)N(CCF)OCC1CCCCC1)Nc1ccncc1` [Compound 1088, N-(cyclohexylmethoxy)-N-(2-fluoroethyl)-6-(3-pyridin-4-ylureido)hexane-1-sulfonamide], for which the IC50 was determined as 0.13 nM.

With `O=C(NCCCCCCS(=O)(=O)N(CCF)OCC1CCCCC1)NCc1cccnc1` [Compound 1089, N-(cyclohexylmethoxy)-N-(2-fluoroethyl)-6-(3-(pyridin-3-ylmethyl)ureido)hexane-1-sulfonamide], the IC50 was 2.04 nM.

As for `O=C(NCCCCCCS(=O)(=O)N(OCCN1CCOCC1)C1CCCC1)Nc1ccncc1` [Compound 1090], the IC50 came out at 0.15 nM.

For `O=C(/C=C/c1cccnc1)NCCCCC1CCN(C(=O)c2ccccc2)CC1` [FK866, reference compound], the IC50 was found to be 0.1 nM.
